# Experimental data as given in patent US20150291593A1, “NOVEL HETEROARYL AND HETEROCYCLE COMPOUNDS, COMPOSITIONS AND METHODS” (HUTCHISON MEDIPHARMA LIMITED, priority 2012, published 2015).
# Key:
# Type in all cases: biochemical
# p110β/p85α = target: T1, p110β/p85α (Homo sapiens, UniProt P42338); experiment: Transcreener KINASE Assay, kinase inhibition of p110β/p85α; settings: for IC50: read-out: PI3Kβ IC50
# T1 construct: purchased Millipore
# Protocol: (§1) PI3K kinases including p110α/p85α, p110δ/p85α and p110γ are purchased from Invitrogen, and p110β/p85α is from Millipore.
# (§2) Primary screening data and IC50 values are measured using Transcreener™ KINASE Assay (Bellbrook, Catalog #3003-10K). […] It is a universal, homogenous, high throughput screening (HTS) technology using a far-red, competitive fluorescence polarization immunoassay based on the detection of ADP to monitor the activity of enzymes that catalyze group transfer reactions. Briefly, the Transcreener KINASE Assay is designed as a simple two-part, endpoint assay.
# (§3) In the first step, the 25 ul kinase reaction is performed by preparing a reaction mixture containing 5 ul test compound (2% DMSO final concentration), 10 ul kinase, buffer (50 mM HEPES, 100 mM NaCl, 1 mM EGTA, 0.03% CHAPS, 3 mM MgCl2, and freshly supplemented 1 mM DTT), and 10 ul 30 uM PIP2/10 uM ATP. The plate is sealed and incubated for 80 min at room temperature. Next, 25 ul ADP detection mix is added per well. The plate is sealed again and incubated for 60 min at room temperature, and then measure fluorescence polarization by Tecan Infinite F500 Reader.
# (§4) Data is analyzed and IC50s are generated using the add-in software for Microsoft Excel, Xlfit™ (version 2.0). IH %=(ADP amount under 2% DMSO-ADP amount under test compound)/ADP amount under 2% DMSO.
# p110γ = target: T2, p110γ (Homo sapiens, UniProt P48736); experiment: Transcreener KINASE Assay, kinase inhibition of p110γ; settings: for IC50: read-out: PI3Kγ IC50
# T2 construct: purchased Invitrogen
# Protocol: PI3K kinases including p110α/p85α, p110δ/p85α and p110γ are purchased from Invitrogen, and p110β/p85α is from Millipore. Primary screening data and IC50 values are measured using Transcreener™ KINASE Assay (Bellbrook, Catalog #3003-10K). […] It is a universal, homogenous, high throughput screening (HTS) technology using a far-red, competitive fluorescence polarization immunoassay based on the detection of ADP to monitor the activity of enzymes that catalyze group transfer reactions. Briefly, the Transcreener KINASE Assay is designed as a simple two-part, endpoint assay. […] The plate is sealed and incubated for 80 min at room temperature. Next, 25 ul ADP detection mix is added per well. The plate is sealed again and incubated for 60 min at room temperature, and then measure fluorescence polarization by Tecan Infinite F500 Reader. Data is analyzed and IC50s are generated using the add-in software for Microsoft Excel, Xlfit™ (version 2.0).
# p110δ/p85α = target: T3, p110δ/p85α (Homo sapiens, UniProt O00329); experiment: Transcreener KINASE Assay, kinase inhibition of p110δ/p85α; settings: for IC50: read-out: PI3Kδ IC50
# T3 construct: purchased Invitrogen
# Protocol: as §1, §2, §3, §4
# T2 sequence (P48736 whole entry, species assumed): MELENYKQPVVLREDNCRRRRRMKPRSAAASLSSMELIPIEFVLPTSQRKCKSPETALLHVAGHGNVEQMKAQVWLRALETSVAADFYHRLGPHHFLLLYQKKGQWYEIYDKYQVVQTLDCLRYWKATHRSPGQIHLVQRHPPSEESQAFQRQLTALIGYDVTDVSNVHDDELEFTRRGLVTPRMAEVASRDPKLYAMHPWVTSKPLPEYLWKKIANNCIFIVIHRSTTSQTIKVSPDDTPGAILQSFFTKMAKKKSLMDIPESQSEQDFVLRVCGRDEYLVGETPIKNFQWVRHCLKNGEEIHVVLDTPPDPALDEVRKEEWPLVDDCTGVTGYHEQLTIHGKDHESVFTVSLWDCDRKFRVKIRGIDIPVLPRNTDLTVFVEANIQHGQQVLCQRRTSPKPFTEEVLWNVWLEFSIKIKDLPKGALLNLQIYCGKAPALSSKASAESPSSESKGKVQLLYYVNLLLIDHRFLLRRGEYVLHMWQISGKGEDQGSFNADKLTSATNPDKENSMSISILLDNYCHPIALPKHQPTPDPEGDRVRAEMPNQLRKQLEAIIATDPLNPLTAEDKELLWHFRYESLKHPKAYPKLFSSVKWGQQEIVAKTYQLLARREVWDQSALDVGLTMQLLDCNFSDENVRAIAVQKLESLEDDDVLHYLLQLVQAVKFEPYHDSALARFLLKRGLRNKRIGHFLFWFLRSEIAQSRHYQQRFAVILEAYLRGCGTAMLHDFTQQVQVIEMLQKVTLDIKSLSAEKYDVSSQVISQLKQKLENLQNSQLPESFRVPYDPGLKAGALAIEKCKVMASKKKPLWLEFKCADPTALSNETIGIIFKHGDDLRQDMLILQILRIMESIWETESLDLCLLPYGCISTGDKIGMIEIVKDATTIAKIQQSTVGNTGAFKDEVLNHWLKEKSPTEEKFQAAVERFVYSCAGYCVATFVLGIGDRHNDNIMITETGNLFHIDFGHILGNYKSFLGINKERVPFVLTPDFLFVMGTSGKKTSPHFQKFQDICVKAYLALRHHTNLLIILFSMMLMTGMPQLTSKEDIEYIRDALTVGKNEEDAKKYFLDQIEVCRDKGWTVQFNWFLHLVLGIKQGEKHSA
# T1 sequence (P42338 whole entry, species assumed): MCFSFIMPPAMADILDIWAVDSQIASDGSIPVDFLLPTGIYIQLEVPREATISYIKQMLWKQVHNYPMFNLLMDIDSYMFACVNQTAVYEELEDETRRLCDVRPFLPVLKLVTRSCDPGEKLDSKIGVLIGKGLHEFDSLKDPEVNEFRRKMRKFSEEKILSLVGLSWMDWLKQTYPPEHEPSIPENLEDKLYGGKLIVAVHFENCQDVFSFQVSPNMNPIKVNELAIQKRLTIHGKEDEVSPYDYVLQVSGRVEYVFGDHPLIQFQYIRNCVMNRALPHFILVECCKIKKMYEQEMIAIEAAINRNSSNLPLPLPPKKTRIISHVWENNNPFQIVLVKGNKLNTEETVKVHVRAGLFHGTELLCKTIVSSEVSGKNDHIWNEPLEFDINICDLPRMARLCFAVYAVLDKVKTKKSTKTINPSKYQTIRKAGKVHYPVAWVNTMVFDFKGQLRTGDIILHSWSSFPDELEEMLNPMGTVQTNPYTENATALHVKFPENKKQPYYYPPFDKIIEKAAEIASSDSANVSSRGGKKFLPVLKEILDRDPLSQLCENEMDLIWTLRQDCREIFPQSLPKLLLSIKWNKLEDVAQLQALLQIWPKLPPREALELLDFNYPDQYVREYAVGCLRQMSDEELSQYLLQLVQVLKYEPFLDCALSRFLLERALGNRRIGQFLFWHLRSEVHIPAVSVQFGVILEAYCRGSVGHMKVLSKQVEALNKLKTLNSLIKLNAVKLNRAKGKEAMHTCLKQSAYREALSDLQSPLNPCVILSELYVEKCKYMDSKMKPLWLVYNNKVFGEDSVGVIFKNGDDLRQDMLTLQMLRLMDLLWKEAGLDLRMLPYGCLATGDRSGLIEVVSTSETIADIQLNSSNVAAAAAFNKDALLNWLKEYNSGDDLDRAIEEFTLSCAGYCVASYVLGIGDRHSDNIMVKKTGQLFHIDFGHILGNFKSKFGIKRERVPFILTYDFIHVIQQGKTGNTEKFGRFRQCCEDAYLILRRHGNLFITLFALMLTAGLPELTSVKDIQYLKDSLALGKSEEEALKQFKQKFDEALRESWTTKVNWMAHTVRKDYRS
# T1 sequence (P27986 whole entry partner, species assumed): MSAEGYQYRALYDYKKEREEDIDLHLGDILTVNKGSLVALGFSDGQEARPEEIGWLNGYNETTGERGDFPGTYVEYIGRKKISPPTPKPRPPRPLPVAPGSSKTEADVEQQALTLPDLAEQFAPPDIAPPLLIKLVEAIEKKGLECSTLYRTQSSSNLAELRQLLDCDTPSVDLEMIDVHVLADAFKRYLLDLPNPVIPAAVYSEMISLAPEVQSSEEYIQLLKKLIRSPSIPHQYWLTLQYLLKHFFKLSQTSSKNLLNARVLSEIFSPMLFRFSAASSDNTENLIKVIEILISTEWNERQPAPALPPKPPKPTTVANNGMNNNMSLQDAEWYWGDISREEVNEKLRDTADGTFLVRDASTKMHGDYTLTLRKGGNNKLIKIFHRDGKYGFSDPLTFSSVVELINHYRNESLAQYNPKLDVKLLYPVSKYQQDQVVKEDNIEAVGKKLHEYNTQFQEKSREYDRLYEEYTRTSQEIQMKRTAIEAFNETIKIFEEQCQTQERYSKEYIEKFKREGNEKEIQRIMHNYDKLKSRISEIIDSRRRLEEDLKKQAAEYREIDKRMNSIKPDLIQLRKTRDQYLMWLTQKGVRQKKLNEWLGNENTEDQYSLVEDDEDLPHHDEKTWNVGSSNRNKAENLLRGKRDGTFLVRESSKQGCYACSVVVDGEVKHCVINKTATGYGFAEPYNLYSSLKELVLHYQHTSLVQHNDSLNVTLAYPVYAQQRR
# T3 sequence (O00329 whole entry, species assumed): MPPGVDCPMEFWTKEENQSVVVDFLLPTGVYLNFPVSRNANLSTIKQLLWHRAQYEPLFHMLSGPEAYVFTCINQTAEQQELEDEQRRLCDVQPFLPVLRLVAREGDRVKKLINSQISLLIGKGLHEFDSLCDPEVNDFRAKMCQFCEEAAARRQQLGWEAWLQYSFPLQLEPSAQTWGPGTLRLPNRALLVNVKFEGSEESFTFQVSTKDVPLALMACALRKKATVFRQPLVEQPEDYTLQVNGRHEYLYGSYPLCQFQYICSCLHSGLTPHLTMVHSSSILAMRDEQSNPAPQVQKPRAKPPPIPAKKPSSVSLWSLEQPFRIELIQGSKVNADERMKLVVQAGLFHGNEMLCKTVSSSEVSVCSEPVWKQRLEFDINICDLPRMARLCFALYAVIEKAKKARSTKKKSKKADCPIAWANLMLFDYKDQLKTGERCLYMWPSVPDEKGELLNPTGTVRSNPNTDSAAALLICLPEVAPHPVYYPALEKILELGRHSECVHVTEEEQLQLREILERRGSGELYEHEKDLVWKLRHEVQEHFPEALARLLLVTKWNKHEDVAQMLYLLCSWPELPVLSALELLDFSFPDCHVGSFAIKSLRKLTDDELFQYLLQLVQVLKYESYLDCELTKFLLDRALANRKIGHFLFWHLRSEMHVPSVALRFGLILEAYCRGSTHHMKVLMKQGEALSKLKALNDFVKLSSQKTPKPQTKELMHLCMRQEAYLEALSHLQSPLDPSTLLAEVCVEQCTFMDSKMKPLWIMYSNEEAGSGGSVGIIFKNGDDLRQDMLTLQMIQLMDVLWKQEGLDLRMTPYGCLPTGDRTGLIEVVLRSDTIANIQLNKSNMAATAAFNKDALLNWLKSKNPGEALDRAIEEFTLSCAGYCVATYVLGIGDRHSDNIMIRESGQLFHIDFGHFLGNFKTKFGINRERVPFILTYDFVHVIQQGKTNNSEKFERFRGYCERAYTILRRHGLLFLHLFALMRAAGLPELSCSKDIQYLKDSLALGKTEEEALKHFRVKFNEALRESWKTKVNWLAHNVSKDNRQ
# T3 sequence (P27986 whole entry partner, species assumed): as the sequence (P27986 whole entry partner, species assumed) above
SMILES,PI3Kβ IH % @ 1 uM (p110β/p85α) [%],PI3Kγ IH % @ 1 uM (p110γ) [%],PI3Kδ IH % @ 1 uM (p110δ/p85α) [%],IC50 (p110δ/p85α) [nM],IC50 (p110γ) [nM],IC50 (p110β/p85α) [nM]
Nc1nc(N2CCC[C@H]2c2nn3cccc3c(=O)n2-c2ccccc2)c2cc[nH]c2n1 [Compound 10],6.0,59.5,60.4,–,–,–
Nc1nc(N2CCC[C@H]2c2nn3cccc3c(=O)n2-c2ccccc2)c2cn[nH]c2n1 [Compound 11],−7.7,24.4,22.9,–,–,–
O=c1c2cccn2nc([C@@H]2CCCN2c2ncnc3[nH]cnc23)n1-c1ccc(F)cc1 [Compound 14],56.9,78.1,90.7,–,265,–
Nc1ncnc(N2CCC[C@H]2c2nn3cccc3c(=O)n2-c2ccccc2)c1Cl [Compound 18],30.9,53.2,100,–,–,–
COc1cccc(-n2c([C@@H]3CCCC3c3ncnc4[nH]cnc34)nn3cccc3c2=O)c1 (stereo partly shown) [Compound 20],7.5,68.6,97.4,–,–,–
CC(Nc1ncnc2[nH]cc(C#N)c12)c1cn2ccc(Cl)c2c(=O)n1-c1cccc(F)c1 (stereo not shown) [Compound 76],82.0,–,–,4,10,–
CC(Nc1ncnc(N)c1C#N)c1cn2ccc(Cl)c2c(=O)n1-c1cc(F)cc(F)c1 (stereo not shown) [Compound 81],79.0,–,>100,6,70,–
"N#Cc1c[nH]c2ncnc(N3CCC[C@H]3c3nn4c(F)ccc4c(=O)[nH]3)c12 [Compound 106, (S)-4-(2-(7-fluoro-4-oxo-3,4-dihydropyrrolo[1,2-f][1,2,4]triazin-2-yl)pyrrolidin-1-yl)-7H-pyrrolo[2,3-d]pyrimidine-5-carbonitrile]",61.9,41.1,86.8,232,–,–
CC(Nc1ncnc2[nH]cc(C#N)c12)c1cc2cccn2c(=O)n1-c1ccccc1 (stereo not shown) [Compound 121],63.9,>100,92.7,–,–,–
O=c1c2c(Cl)ccn2nc([C@@H]2CC(F)(F)CN2c2ncnc3[nH]cnc23)n1Cc1ccccn1 [Compound 159],32.8,20.4,85.0,127,–,–
C[S+]([O-])c1c[nH]c2ncnc(N3CCC[C@H]3c3nn4ccc(Cl)c4c(=O)n3-c3ccccc3)c12 (stereo partly shown) [Compound 188],–,–,–,5,17,741
C[C@H]1CCN(c2ncnc3[nH]cc(C#N)c23)C1c1nn2ccc(Cl)c2c(=O)n1-c1ccccc1 (stereo partly shown) [Compound 233],–,–,–,4,13,26
C[C@H]1CCN(c2ncnc3[nH]cnc23)C1c1nn2ccc(Cl)c2c(=O)n1-c1ccccc1 (stereo partly shown) [Compound 234],–,–,–,2,12,50
O=c1c2c(Cl)ccn2nc([C@@H]2CCCN2c2ncnc3[nH]cnc23)n1CC1CC1 [Compound 256],68.1,>100,97.5,6,82,–
N#Cc1cnc(N)nc1N1CCC1c1nn2ccc(Cl)c2c(=O)n1CC1CC1 (stereo not shown) [Compound 373],–,–,–,27,361,> 1000

# More lines, now with the values ahead:
PI3Kβ IH % @ 1 uM (p110β/p85α) [%],PI3Kγ IH % @ 1 uM (p110γ) [%],PI3Kδ IH % @ 1 uM (p110δ/p85α) [%],IC50 (p110δ/p85α) [nM],IC50 (p110γ) [nM],IC50 (p110β/p85α) [nM],SMILES
31.1,83.8,>100,–,–,–,COc1cccc(-n2c([C@@H]3CCCN3c3ncnc4[nH]cc(C#N)c34)nn3cccc3c2=O)c1 [Compound 9]
23.1,27.9,80.6,158,–,–,O=c1c2cccn2nc([C@@H]2CCCN2c2ncnc3[nH]nc(Br)c23)n1-c1ccccc1 [Compound 12]
18.0,71.9,97.8,–,477,–,O=c1c2cccn2nc([C@@H]2CCCN2c2ncnc3[nH]cnc23)n1-c1cccc(F)c1 [Compound 13]
25.1,87.3,100,–,85,–,N#Cc1c[nH]c2ncnc(N3CCC[C@H]3c3nn4cccc4c(=O)n3-c3cccc(F)c3)c12 [Compound 16]
9.2,60.3,100,–,–,–,O=c1c2cccn2nc([C@@H]2CCCN2c2ncnc3[nH]cnc23)n1-c1cccc(Cl)c1 [Compound 17]
24.0,75.7,100,–,287,–,COc1cccc(-n2c([C@@H]3CCCN3c3ncnc(N)c3C#N)nn3cccc3c2=O)c1 [Compound 19]
−1.3,30.4,94.3,–,–,–,COc1cccc(-n2c([C@@H]3CCCN3c3ncnc(N)c3Cl)nn3cccc3c2=O)c1 [Compound 21]
8.9,21.2,7.7,–,–,–,N#Cc1c[nH]c2ncnc(N3CCC[C@@H]3c3nn4cccc4c(=O)n3-c3ccccc3)c12 [Compound 22]
36.9,81.9,99.2,–,273,–,N#Cc1cccc(-n2c([C@@H]3CCCN3c3ncnc4[nH]cc(C#N)c34)nn3cccc3c2=O)c1 [Compound 23]
8.3,14.1,17.7,–,–,–,O=c1c2cccn2nc([C@H]2CCCN2c2ncnc3[nH]cnc23)n1-c1ccccc1 [Compound 24]
78.8,94.2,>100,3,6,147,O=c1c2cccn2nc([C@@H]2CCCN2c2ncnc3[nH]cc(-c4cn[nH]c4)c23)n1-c1ccccc1 [Compound 99]
23.9,38.7,72.8,–,–,–,"N#Cc1n[nH]c2ncnc(N3CCC[C@H]3c3nn4cccc4c(=O)n3-c3ccccc3)c12 [Compound 110, (S)-4-(2-(4-oxo-3-phenyl-3,4-dihydropyrrolo[1,2-f][1,2,4]triazin-2-yl)pyrrolidin-1-yl)-1H-pyrazolo[3,4-d]pyrimidine-3-carbonitrile]"
34.5,96.4,94.6,26,231,–,N#Cc1ccn2nc([C@@H]3CCCN3c3ncnc4[nH]cnc34)n(-c3ccccc3)c(=O)c12 [Compound 112]
